Test results reported in article PMC8998618, “A Pharmacokinetic and Metabolism Study of the TRPC6 Inhibitor SH045 in Mice by LC-MS/MS” (International Journal of Molecular Sciences, 2022).
Like-named read-outs stand apart in the source and are kept apart here.

Assay: plasma pharmacokinetics after single i.v. and p.o. administration, NCA
Assay type: in vivo, mice
Conditions: for increase in AUCinf with 10-fold dosing / increase in cmax with 10-fold dosing: 20 vs 2 mg/kg BW; for Cmax / Tmax / AUC(0-inf) / AUC(0-t) / MRT / half-life / bioavailability / CL/F / Vd/F / AUCextra / Vz/F: plasma; for bioavailability: from AUCinf, read-out: oral bioavailability (F); for Vd/F: read-out: Vz/F
Procedure: Analysis of SH045 in samples from plasma, tissue, urine, and microsomal incubations was performed as previously described. Details are described in Supplementary Materials SM2.
Male C57BL/6 mice (25–30 g BW, Charles River, Sulzfeld, Germany) housed in groups under standard conditions and allowed access to lab chow and water ad libitum were used. The in vivo experiments were performed according to the national regulations of animal welfare and were ethically approved by the local committee on animal welfare and the local authorities. Animal experiments were performed under strict consideration of the 3R principles, fully complying with the ARRIVE guidelines. For single SH045 administration mice were assigned to four groups of 12 animals each: 2 and 20 mg/kg BW applied via the i.v. and the p.o. route, respectively. Due to the recommended limited volume for blood collection, each mouse was assigned to a maximum of five different time points each out of 8 (for p.o.) and 9 (for i.v.) for blood collection resulting in six independent plasma concentration values per time point.
SH045 was freshly prepared with DMSO (final concentration 0.5%) and Kolliphor® EL (5% in water). At 7:00 a.m., one hour before drug administration, food was removed. For oral gavage and for i.v. administration into the tail vein the respective dose was applied in a volume of 3 mL/kg BW.
Via heparin-coated catheters a maximum of 50 µL blood was collected from the tail vein at 0.25, 0.5, 1, 2, 3, 4, 6, 8, or 24 h after administration and immediately centrifuged at 4000× g at 4 °C for 10 min. For repeated administration 20 mg/kg BW SH045 were administered at 8:00 a.m. on five consecutive days, once a day. Blood was taken 1 h and 24 h after drug administration. Tissue samples were harvested from isoflurane-euthanized animals at indicated time points. Mice were transcardially perfused with PBS and dissected tissues were washed to remove remaining blood. Plasma and tissue samples were stored at −80 °C until analysis. Urine was collected by bladder puncture at indicated time points.
Pharmacokinetics parameters for SH045 were determined based on non-compartmental model analysis (NCA) using the Phoenix WinNonlin Software 8.3 (Certara, Princeton, NJ, USA). The slope of the terminal phase of the SH045 concentration-time profile (λz) was estimated as absolute values from ≥3 data points using a log-linear regression analysis. The area under the concentration-time curve (AUC) for the time (t) providing the final measurable concentration (AUClast) was calculated using the mixed log-linear trapezoidal rule (linear up, log down). The AUCinf was computed as AUClast + Clast/λz, where the estimated value of the latest data point is used. The systemic total body clearance from plasma (CLp) was calculated as applied dose divided by AUCinf. MRT was calculated as AUMCinf/AUCinf, where area under the first moment curve (AUMC) was defined as area under the curve of the product of time and the plasma drug concentration versus time from zero to infinity. Finally, the AUCextra extrapolates the AUC from the last measured time point to infinity. Vz, the apparent volume of distribution during terminal elimination phase was calculated by Vz = Dose/AUCinf × λz, where λz is the plasma elimination rate constant. The apparent volume of distribution during the terminal phase following extravascular administration based on the fraction of dose absorbed Vz/F = Dose/(AUCinf × λz). The bioavailability (F) of two oral doses SH045 doses were calculated with reference to identical doses administered by intravenous bolus application of SH045 as follows: F = AUCoral/AUCi.v. Tissue binding of SH045 was analyzed exemplarily in lung, liver and kidney homogenate using ultrafiltration. The concentration in the filtrate refers to the unbound SH045 concentration according to tissue binding (%) = (ctot − cfiltrate)/ctotal × 100. For details see Supplementary Materials SM5.

[1] = male, C57BL/6, mouse, iv, mice, single 2.0 mg/kg BW i.v.
[2] = male, C57BL/6, mouse, iv, mice, single 2.0 mg/kg BW i.v., NCA
[3] = male, C57BL/6, mouse, iv, mice, single 20 mg/kg BW i.v.
[4] = male, C57BL/6, mouse, iv, mice, single 20 mg/kg BW i.v., NCA
[5] = male, C57BL/6, mouse, po, mice, single 2.0 mg/kg BW p.o.
[6] = male, C57BL/6, mouse, po, mice, single 2.0 mg/kg BW p.o., NCA
[7] = male, C57BL/6, mouse, po, mice, single 20 mg/kg BW p.o.
[8] = male, C57BL/6, mouse, po, mice, single 20 mg/kg BW p.o., NCA
[9] = mice, single 2.0 mg/kg BW i.v., NCA
[10] = mice, single 20 mg/kg BW i.v., NCA

total body clearance following oral administration with regard to oral bioavailability (2 mg/kg p.o.): 95 mL/min/kg
time up to which SH045 is measurable in plasma (20 mg/kg BW i.v.): up to 24 h
corresponding drug plasma concentration (20 mg/kg BW i.v., corresponding to urine period 10–30 min): 3035 nM
corresponding drug plasma concentration (20 mg/kg BW i.v., corresponding to urine period 60–80 min): 1655 nM
corresponding drug plasma concentration (20 mg/kg BW i.v., corresponding to urine period 100–120 min): 560 nM
accumulation of SH045 in plasma after repeated administration (20 mg/kg i.v. five times once a day, 1 and 24 h after the last injection): no accumulation
AUCextra percentage, simulated recalculation including late low concentration values (20 mg/kg i.v., NCA): 0.8%
total body clearance following oral administration with regard to oral bioavailability (20 mg/kg p.o.): 117 mL/min/kg
increase in AUCinf with 10-fold dosing (i.v.): 8.1 fold
increase in cmax with 10-fold dosing (i.v.): 6.5 fold
Cmax [1]: 369 ng/mL
Tmax [1]: 15 min
AUC(0-inf) [2]: 351 ng·h/mL
AUC(0-t) [2]: 338 ng·h/mL
MRT [2]: 0.75 h
half-life (male, C57BL/6, mouse, iv, mice, single 2.0 mg/kg BW i.v., NCA, read-out: t1/2 (converted)): 76.8 min
Cmax [3]: 2390 ng/mL
Tmax [3]: 15 min
AUC(0-inf) [4]: 2840 ng·h/mL
AUC(0-t) [4]: 2720 ng·h/mL
MRT [4]: 1.52 h
half-life (male, C57BL/6, mouse, iv, mice, single 20 mg/kg BW i.v., NCA, read-out: t1/2 (converted)): 142 min
half-life (male, C57BL/6, mouse, intravenous, oral, range over both doses and routes, read-out: mean half-life (t1/2)): 72 to 144 min
bioavailability (male, C57BL/6, mouse, po, 2 mg/kg p.o.): 24%
bioavailability (male, C57BL/6, mouse, po, 20 mg/kg p.o.): 11%
Cmax [5]: 68.3 ng/mL
Tmax [5]: 30 min
AUC(0-inf) [6]: 84.2 ng·h/mL
AUC(0-t) [6]: 69 ng·h/mL
MRT [6]: 1.78 h
CL/F (male, C57BL/6, mouse, po, mice, single 2.0 mg/kg BW p.o., NCA, read-out: CL/F): 396 mL/min/kg
Vd/F [6]: 39.5 L/kg
half-life (male, C57BL/6, mouse, po, mice, single 2.0 mg/kg BW p.o., NCA, read-out: t1/2 (converted)): 69 min
Cmax [7]: 341 ng/mL
Tmax [7]: 30 min
AUC(0-inf) [8]: 314 ng·h/mL
AUC(0-t) [8]: 298 ng·h/mL
MRT [8]: 1.68 h
CL/F (male, C57BL/6, mouse, po, mice, single 20 mg/kg BW p.o., NCA, read-out: CL/F): 1060 mL/min/kg
Vd/F [8]: 171 L/kg
half-life (male, C57BL/6, mouse, po, mice, single 20 mg/kg BW p.o., NCA, read-out: t1/2 (converted)): 112 min
AUCextra [9]: 3.7%
CL/F [9]: 94.9 mL/min/kg
Vz/F [9]: 10.5 L/kg
AUCextra (mice, single 2.0 mg/kg BW p.o., NCA): 17.5%
AUCextra [10]: 4.2%
CL/F [10]: 117.2 mL/min/kg
Vz/F [10]: 24.0 L/kg
AUCextra (mice, single 20 mg/kg BW p.o., NCA): 5.0%
F (mice, single 2.0 mg/kg BW i.v. (reference route)): 1.0
F (mice, single 2.0 mg/kg BW p.o., F = AUCoral/AUCi.v.): 0.24
F (mice, single 20 mg/kg BW i.v. (reference route)): 1.0
F (mice, single 20 mg/kg BW p.o., F = AUCoral/AUCi.v.): 0.11
increase in AUCinf with 10-fold dosing (oral): 3.7 fold
increase in cmax with 10-fold dosing (oral): 5.0 fold
time up to which SH045 is measurable in plasma (orally): up to 6 h
Compound: C=C[C@@](C)(O)CC[C@H]1C(=C)C[C@H](OC(=O)NC)[C@H]2C(C)(C)CCC[C@]12C [SH045, (1S,4S,4aR,8aS)-4-((S)-3-Hydroxy-3-methylpent-4-en-1-yl)-4a,8,8-trimethyl-3-methylenedecahydronaphthalen-1-yl methylcarbamate]
